Experiment [1] addresses COX-1 (Homo sapiens, UniProt P23219). The experiment is described as follows: Assay of COX-1 activity from U937 cell microsomes. It counts as biochemical. Also on record: Assay of COX-1 Activity from U937 cell microsomes; endogenous in cells; host or cells: U937 cells, 100,000×g microsomal pellet. To be noted: PGE2, read-out: COX-1 (IC50 μM) U-937. As for the experimental part:
Assay of COX-1 Activity from U937 cell microsomes
U 937 cells are pelleted by centrifugation at 500×g for 5 min and washed once with phosphate-buffered saline and repelleted. […] The cell suspension is sonicated 4 times for 10 sec and is centrifuged at 10,000×g for 10 min at 4° C. The supernatant is centrifuged at 100,000×g for 1 hr at 4° C. The 100,000×g microsomal pellet is resuspended in 0.1 M Tris-HCl, pH 7.4, 10 mM EDTA to approximately 7 mg protein/ml and stored at -80° C.
Microsomal preparations are thawed immediately prior to use, subjected to a brief sonication, and then diluted to a protein concentration of 125 μg/ml in 0.1 M Tris-HCl buffer, pH 7.4 containing 10 mM EDTA, 0.5 mM phenol, 1 mM reduced glutathione and 1 μM hematin. Assays are performed in duplicate in a final volume of 250 pl. Initially, 5 µl of DMSO vehicle or drug in DMSO are added to 20 μl of 0.1 M Tris-HCl buffer, pH 7.4 containing 10 mM EDTA in wells of a 96-deepwell polypropylene titre plate. 200 μl of the microsomal preparation are then added and pre-incubated for 15 min at room temperature before addition of 25 μl of […] in 0.1 M Tris-HCl and 10 mM EDTA, pH 7.4. Samples are incubated for 40 min at room temperature and the reaction is stopped by the addition of 25 pl of 1 N HCl. Samples are neutralized with 25 μl of 1 N NaOH prior to quantitation of PGE2 content by radioimmunoassay (Dupont-NEN or Amersham assay kits). Cyclooxygenase activity is defined as the difference between PGE2 levels in samples incubated in the presence of arachidonic acid and ethanol vehicle.
(§1) In the assay, inhibition is determined by measuring the amount of prostaglandin E2 (PGE2) synthesized in the presence of arachidonic acid, cyclooxygenase-I or cyclooxygenase-2 and a putative inhibitor.

Experiment [2] addresses T1, COX-2 (Homo sapiens, UniProt P35354).
T1 sequence (P35354 18-604): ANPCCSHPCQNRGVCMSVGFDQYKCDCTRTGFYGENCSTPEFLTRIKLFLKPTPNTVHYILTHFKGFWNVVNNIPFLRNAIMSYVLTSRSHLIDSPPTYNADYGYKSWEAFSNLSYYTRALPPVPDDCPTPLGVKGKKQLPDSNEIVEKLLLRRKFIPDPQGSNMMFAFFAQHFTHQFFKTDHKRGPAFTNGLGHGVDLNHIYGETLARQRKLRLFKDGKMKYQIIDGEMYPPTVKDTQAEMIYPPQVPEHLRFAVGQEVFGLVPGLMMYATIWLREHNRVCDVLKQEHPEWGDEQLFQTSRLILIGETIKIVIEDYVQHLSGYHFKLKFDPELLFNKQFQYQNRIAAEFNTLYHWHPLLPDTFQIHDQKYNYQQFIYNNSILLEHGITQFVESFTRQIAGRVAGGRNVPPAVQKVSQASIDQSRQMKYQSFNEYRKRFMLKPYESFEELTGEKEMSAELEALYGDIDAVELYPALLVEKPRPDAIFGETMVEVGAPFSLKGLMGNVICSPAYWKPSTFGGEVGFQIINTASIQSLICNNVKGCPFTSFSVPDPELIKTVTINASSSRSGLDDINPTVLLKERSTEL
The experiment can be described thus: Human whole blood assay, COX-2 (LPS-induced PGE2 production). To be noted: LPS-induced PGE2, 24 hours at 37° C, read-out: COX-2 (IC50 μM) HWB. More on the design: incubation of human whole blood with LPS, which induces COX-2; from tissue; host or cells: fresh human whole blood (volunteers), incubated with LPS. It counts as cell-based. The text has this:
As well, platelets in whole blood contain a large amount of the COX-1 enzyme. Immediately following blood clotting, platelets are activated through a thrombin-mediated mechanism. This reaction results in the production of thromboxane B2 (TxB2) via activation of COX-1. Thus, the effect of test compounds on TxB2 levels following blood clotting can be examined and used as an index for COX-1 activity. Therefore, the degree of selectivity by the test compound can be determined by measuring the levels of PGE2 after LPS induction (COX-2) and […] following blood clotting (COX-1) in the same assay.
A. COX-2 (LPS-induced PGE2 production)
Fresh blood is collected in heparinized tubes by venipuncture from both male and female volunteers. The subjects have no apparent inflammatory conditions and have not taken any NSAIDs for at least 7 days prior to blood collection. Plasma is immediately obtained from a 2mL blood aliquot to use as blank (basal levels of PGE2). The remaining blood is incubated with LPS (100 μg/ml final concentration, Sigma Chem, #L-2630 from E. coli; diluted in 0.1% BSA (Phosphate buffered saline) for 5 minutes at room temperature. Five hundred μL aliquots of blood are incubated with either 2μL of vehicle (DMSO) or 2 μL of a test compound at final concentrations varying from 10nM to 30 μM for 24 hours at 37° C. At the end of the incubation, the blood is centrifuged at 12,000×g for 5 minutes to obtain plasma. A 100 μL aliquot of plasma is mixed with 400 μL of methanol for protein precipitation. The supernatant is obtained and is assayed for PGE2 using a radioimmunoassay kit (Amersham, RPA#530) after conversion of PGE2 to its methyl oximate derivative according to the manufacturer's procedure. […]

Experiment [3] deals with T1, COX-2. The experiment can be described thus: Whole cell assay for COX-2 using CHO transfected cell line (CHO [hCOX-2]), PGE2. The following applies: CHO [hCOX-2] cells, 10 μM AA. It counts as cell-based. Also on record: expressed in transfected cells; host or cells: CHO (Chinese hamster ovary), stably transfected with pCDNAIII vector; CHO [hCOX-2]. As to the method:
Chinese hamster ovary (CHO) cell lines which have been stably transfected with an eukaryotic expression vector pCDNAIII containing either the human COX-1 or COX-2 cDNA's are used for the assay. These cell lines are referred to as CHO [hCOX-1] and CHO [hCOX-2], respectively. […] Drugs to be tested are dissolved in DMSO to 66.7-fold the highest test drug concentration. […] Cells (0.3×10^6 cells in 200 p) are preincubated with 3 AIl of the test drug or DMSO vehicle for 15 min at 37° C. […] Cells are then challenged in the presence or absence of drug with the AA/HBSS solution to yield a final concentration of 0.5 μM AA in the CHOhCOX-1] assay and a final concentration of 10 μM AA in the CHO [hCOX-2] assay. […] The samples are centrifuged at 300×g at 4° C. for 10 min, and an aliquot of the clarified supernatant is appropriately diluted for the determination of PGE2 levels using an enzyme-liked immunoassay for PGE2 (Correlate PGE2 enzyme immunoassay kit, Assay Designs, Inc.). Cyclooxygenase activity in the absence of test compounds is determined as the difference in PGE2 levels of cells challenged with arachidonic acid versus the PGE2 levels in cells mock-challenged with ethanol vehicle. Inhibition of PGE2 synthesis by test compounds is calculated as a percentage of the activity in the presence of drug versus the activity in the positive control samples.
as §1

The values that follow come from patent US6004960A, “Pyridazinones as inhibitors of cyclooxygenase-2” (Merck Frosst Canada, Inc., priority 1998, dated 1999).

Sequence of COX-1 (P23219 24-599): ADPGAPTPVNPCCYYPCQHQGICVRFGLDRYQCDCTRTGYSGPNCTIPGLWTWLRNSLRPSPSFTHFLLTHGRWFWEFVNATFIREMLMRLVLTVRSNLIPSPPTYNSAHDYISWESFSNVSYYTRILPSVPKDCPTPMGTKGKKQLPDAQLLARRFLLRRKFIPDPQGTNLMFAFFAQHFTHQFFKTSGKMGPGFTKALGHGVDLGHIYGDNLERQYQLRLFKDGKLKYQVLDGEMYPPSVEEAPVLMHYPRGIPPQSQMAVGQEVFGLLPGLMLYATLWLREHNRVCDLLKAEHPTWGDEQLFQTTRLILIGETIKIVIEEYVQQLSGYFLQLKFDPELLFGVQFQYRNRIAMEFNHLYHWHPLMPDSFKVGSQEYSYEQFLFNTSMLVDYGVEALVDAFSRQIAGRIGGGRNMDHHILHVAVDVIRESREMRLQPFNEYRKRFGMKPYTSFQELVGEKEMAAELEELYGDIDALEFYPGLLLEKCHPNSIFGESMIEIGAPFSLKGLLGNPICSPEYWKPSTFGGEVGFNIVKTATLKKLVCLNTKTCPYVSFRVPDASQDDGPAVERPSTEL

On to `COC(=O)c1ccc(Cn2ncc(-c3ccc(S(C)(=O)=O)cc3)c(-c3ccccc3)c2=O)cc1` [Example 13, 2-(4-Carbomethoxybenzyl)-5-(4-methylsulfonyl)phenyl-4-phenyl-2H-pyridazin-3-one], for which the figures for the concentration for half-maximal inhibition (IC50) in experiment [1], in experiment [2] and in experiment [3] were above 10 µM, above 33 µM and 2 µM, respectively. With `CS(=O)(=O)c1ccc(-c2cnn(Cc3cccc(F)c3)c(=O)c2-c2ccccc2)cc1` [Example 15, 2-(3-Fluorobenzyl)-5-(4-methylsulfonyl)phenyl-4-phenyl-2H-pyridazin-3-one], the IC50 in experiment [1] is above 10 µM; in experiment [2], 0.8 µM; in experiment [3], 0.009 µM. Turning to `CS(=O)(=O)c1ccc(-c2cnn(Cc3ccc(F)cc3)c(=O)c2-c2ccc(F)cc2)cc1` [Example 16, 2-(4-Fluorobenzyl)-4-(4-fluorophenyl)-5-(4-methylsulfonyl)phenyl-2H-pyridazin-3-one], the figures for the IC50 in experiment [1], in experiment [2] and in experiment [3] were 3 to 10 µM, 1.1 µM and 0.053 µM, respectively. On to `CS(=O)(=O)c1ccc(-c2cnn(Cc3ccccc3F)c(=O)c2-c2ccccc2)cc1` [Example 17, 2-(2-Fluorobenzyl)-5-(4-methylsulfonyl)phenyl-4-phenyl-2H-pyridazin-3-one], for which the IC50 in experiment [1] was above 10 µM. With `CS(=O)(=O)c1ccc(-c2cnn(C3CC3)c(=O)c2-c2ccc(F)cc2)cc1` [Example 18, 2-Cyclopropyl-5-(4-methylsulfonyl)phenyl-4-(4-fluorophenyl)-2H-pyridazin-3-one], the half-inhibitory concentration (IC50) in experiment [1] is around 10 µM. With `CS(=O)(=O)c1ccc(-c2cnn(CCC(F)(F)F)c(=O)c2-c2ccc(F)cc2)cc1` [Example 19, 4-(4-Fluorophenyl)-5-(4-methylsulfonyl)phenyl-2-(3,3,3-trifluoropropyl)-2H-pyridazin-3-one], the IC50 in experiment [1] is above 10 µM.

As to `CS(=O)(=O)c1ccc(-c2cnn(Cc3ccncc3)c(=O)c2-c2ccc(F)cc2)cc1` [Example 20, 4-(4-Fluorophenyl)-5-(4-methylsulfonyl)phenyl-2-(4-pyridylmethyl)-2H-pyridazin-3-one], the results for the half-inhibitory concentration (IC50) in experiment [1], in experiment [2] and in experiment [3] were above 10 µM, 16.8 µM and 1.4 µM, respectively.

`CS(=O)(=O)c1ccc(-c2cnn(Cc3ccccc3)c(=O)c2Oc2ccc(Cl)cn2)cc1` [Example 23, 2-Benzyl-4-(5-chloro-2-pyridyloxy)-5-(4-methylsulfonyl)phenyl-2H-pyridazin-3-one]: the half-inhibitory concentration (IC50) in experiment [1] is 3 to 10 µM; in experiment [2], 0.9 µM; in experiment [3] it was 0.26 µM. As to `CS(=O)(=O)c1ccc(-c2cnn(Cc3cccs3)c(=O)c2-c2ccc(F)cc2)cc1` [Example 27, 4-(4-Fluorophenyl)-5-(4-methylsulfonyl)phenyl-2-(thiophen-2-yl-methyl)-2H-pyridazin-3-one], in experiment [1], the IC50 is around 1 µM. `CS(=O)(=O)c1ccc(-c2cnn(CCc3ccccc3)c(=O)c2-c2ccc(F)cc2)cc1` [Example 33, 2-(2-Phenethyl)-4-(4-fluorophenyl)-5-(4-methylsulfonyl)phenyl-2H-pyridazin-3-one]: the 50% inhibitory concentration (IC50) is above 10 µM in experiment [1] and 8.6 µM in experiment [2]. With `CS(=O)(=O)c1ccc(-c2cnn(Cc3ccccc3)c(=O)c2Oc2ccc(Br)cn2)cc1` [Example 34, 2-Benzyl-4-(5-bromo-2-pyridyloxy)-5-(4-methylsulfonyl)phenyl-2H-pyridazin-3-one], the values for the half-maximal inhibitory concentration (IC50) in experiment [1] and in experiment [2] were above 10 µM and 0.86 µM, respectively. In the case of `Cc1ccc(-c2c(-c3ccc(S(C)(=O)=O)cc3)cnn(Cc3ccccc3)c2=O)cc1` [Example 35, 2-Benzyl-4-(4-methylphenyl)-5-(4-methylsulfonyl)phenyl-2H-pyridazin-3-one], the IC50 in experiment [2] was 0.35 µM.

As to `CS(=O)(=O)c1ccc(-c2cnn(CC3CCCCC3)c(=O)c2-c2ccc(F)cc2)cc1` [Example 36, 2-Cyclohexylmethyl-4-(4-fluorophenyl)-5-(4-methylsulfonyl)phenyl-2H-pyridazin-3-one], in experiment [1], the IC50 is 0.3 to 1 µM.
